Experimental data from US11980633B2, “Method for treating cancer using a combination of DNA-damaging agents and DNA-PK inhibitors” (Vertex Pharmaceuticals Incorporated, priority 2016, dated 2024).

System: pKAP1 and pH2AX levels in MDA-MB-468 breast cancer cells
Test: pKAP1 and pH2AX immunoblot, doxorubicin pulse (wash-out) with Compound B-2 in MDA-MB-468 cells
Type: cell-based, human
Details: 1 μM Compound B-2 + 500 nM doxorubicin pulse; beginning at 1 h doxorubicin exposure, harvested at 8 h
Experimental: Materials and Methods. The human cancer cell lines A549 (CCL-185), DU4475 (HTB-123), MDA-MB-436 (HTB-130), and MDA-MB-468 (HTB-132) were obtained from American Type Culture Collection (ATCC; Manassas, VA). A 10 mM stock solution of Compound B-1 or Compound B-2 was prepared in DMSO and stored at −20° C. Etoposide and doxorubicin were purchased from Sigma-Aldrich (St. Louis, MO).
The A549 human lung cancer cell line was purchased from ATCC and was cultured in DMEM supplemented with 10% fetal bovine serum, 1× non-essential amino acids and 1× Penicillin/Streptomycin (complete medium). Cells were maintained at a subconfluent state by passaging every 2-3 days. Human breast cancer cells lines DU4475, MDA-MB-436, and MDA-MB-468 were purchased from ATCC and cultured in DMEM supplemented with 10% fetal bovine serum, 1× Glutamax and Penicillin/Streptomycin. Cells were maintained at a subconfluent state by passaging every 2-3 days. […]
In order to determine the effect of a pulse of doxorubicin in combination with a DNA-PK inhibitor on pKAP1 and pH2AX levels, which would more closely simulate an in vivo administration of doxorubicin, MDA-MB-468 breast cancer cells were pre-incubated with 1 μM Compound B-2 for 15 min, followed by addition of 500 nM doxorubicin. […] Cells were harvested 8 h from initial doxorubicin exposure, and analyzed for levels of pKAP1 and pH2AX by immunoblotting. […]

## [2H]c1nc(C)nc([2H])c1-c1cc(NC[C@@H](C)c2cccc3c(C(=O)NC)ccnc23)ncn1 [Compound B-2]
  pKAP1 and pH2AX levels vs doxorubicin alone: enhanced levels
